Test results as given in patent US12084521B2, “TLR9 inhibitors to suppress inflammatory response to pathogens” (University Of Maryland, Baltimore, priority 2018, dated 2024).

How the values were obtained:
TLR9 signaling [1] = assay: Plasma cytokines after i.p. ODN 1668 in mice; assay type: in vivo, C57BL/6J mice
Procedure: (§1) Systemic cytokine levels were measured in plasma samples obtained 1, 3, and 5 hours after intraperitoneal (i.p.) administration of 7.86 nmol (50 μg) of ODN 1668 or 67 nmol of Pam3C per mouse, using ELISA kits from Biolegend™ Inc. CPDP were dissolved in PBS and administered i.p. at the dose of 200 nmol per mouse 1 hour before administration of a TLR agonist. For survival experiments, mice were sensitized to TLR9 agonists by i.p. injection of 20 mg of D-Gal 30 minutes before administration of peptides or PBS. ODN 1668 was used at the doses of 3.93 or 7.86 nmol/mouse (25 or 50 μg/mouse) 1.5 hours after D-Gal. Animal survival was monitored for 50 hours. All agents were administered i.p. in 500 μL volume of PBS. Animals had free access to food and water during the observation period. All animal experiments were conducted in accordance with the national guidelines for the care and use of laboratory animals under a protocol that was approved by the UMB IACUC.
To test the in vivo efficacy and specificity of 9R34-ΔN, C57BL/6J mice were mock-treated or treated i.p. with a single dose of inhibitory or control peptide (200 nmol/mouse) and challenged with TLR9 agonist ODN 1668 (7.86 nmol/mouse) or TLR2/1 agonist Pam3C (67 nmol/mouse) 1 hour later. Plasma concentrations of TNFα and IL-12-p40 were measured 1, 3, and 5 hours after the challenge. Both TLR agonists increased concentrations of TNFα and IL-12-p40 in 1 hour samples from below the limit of detection to about 1.2 and about 6 ng/mL in the case of ODN 1668, and to 0.12 ng/mL and 1 ng/mL after treatment with Pam3C.
Plasma TNFα and IL-12-p40 levels following intraperitioneal administration of ODN 1668 to C57Bl/6J mice in peptide-pretreated and control mice are shown in FIG. 14A and FIG. 14B. Data shown in these figures represent the means±SEM obtained in at least three independent experiments. The statistical significance of changes in cytokine concentrations was determined by a two-way ANOVA test; *p<0.001.

TLR9-induced lethality = assay: Survival of D-Gal pretreated mice after ODN 1668; assay type: in vivo, C57Bl/6J mice
Procedure: as §1
With the exception for LPS, administration of a purified TLR agonist is not lethal to mice. Mice, however, can be sensitized to TLR agonists by pretreatment with D-galactosamine (D-Gal). Survival of C57Bl/6J mice pretreated with D-galactosamine and challenged with different doses of ODN 1668 was tested. Mice were first administered with D-Gal intraperitoneally at the dose of 20 mg/mouse. Thirty minutes later mice were mock-treated with PBS or treated with a CPDP at the dose 200 nmol/mouse. ODN 1668 was administered 1 hour after peptide treatment at the dose of 3.93 or 7.86 nmol/mouse.

[2] = Stability and solubility of peptide solutions
TLR2/1 signaling = assay: Plasma cytokines after i.p. Pam3C in mice; assay type: in vivo, C57BL/6J mice; conditions: peptide 200 nmol/mouse i.p.; Pam3C 67 nmol/mouse
Procedure: as §1, with “Animals had free access to food and water during the observation period. All animal experiments were conducted in accordance with the national guidelines for the care and use of laboratory animals under a protocol that was approved by the UMB IACUC.” left out
To test the in vivo efficacy and specificity of 9R34-ΔN, C57BL/6J mice were mock-treated or treated i.p. with a single dose of inhibitory or control peptide (200 nmol/mouse) and challenged with TLR9 agonist ODN 1668 (7.86 nmol/mouse) or TLR2/1 agonist Pam3C (67 nmol/mouse) 1 hour later. Plasma concentrations of TNFα and IL-12-p40 were measured 1, 3, and 5 hours after the challenge. […]
Plasma TNFα and IL-12-p40 levels following intraperitioneal administration of ODN 1668 to C57Bl/6J mice in peptide-pretreated and control mice are shown in FIG. 14A and FIG. 14B. […] The statistical significance of changes in cytokine concentrations was determined by a two-way ANOVA test; *p<0.001.

TLR9 signaling [3] = assay: ODN 1668-induced cytokine secretion in BMDM supernatants (ELISA); assay type: cell-based, mouse; conditions: 5 hour supernatants, ODN 1668 1 μM
Procedure: Mouse TNFα and IL-12-p40 concentrations were measured in supernatants using ELISA kits from Biolegend™, Inc.
BMDMs were incubated in the presence of a decoy peptide for 30 minutes prior to stimulation with ODN 1668 (1 μM). The statistical significance of changes in cytokine levels was determined by the one-way ANOVA test; *p<0.01.

TLR7 signaling = assay: TNFα mRNA in BMDM stimulated with R848; assay type: cell-based, mouse; conditions: peptide 40 μM; R848 2.85 μM; 1 h
Procedure: (§2) The cDNA obtained was amplified with gene-specific primers for mouse HPRT, TNFα, IL-10, IL-12-p40, or IL-6 and Fast SYBR Green™ master mix (Applied Biosystemsm) as previously described.
(§3) CPDPs 9R34 and 9R11 were examined for inhibition of TLR1/2, TLR4, and TLR7 signaling. BMDMs were stimulated with Pam3C, E. coli LPS, or R848 and TNFαmRNA was measured 1 hour after stimulation. Mouse BMDM were treated with 40 μM of the indicated peptides for 30 minutes prior to stimulation with ODN 1668 (1 μM), E. coli LPS (0.1 μg/mL), R848 (2.85 μM), or P3C (0.33 μM). R848 and P3C were used to specifically activate TLR7 and TLR2 signaling, respectively. TNFαmRNA expression was measured 1 h after ODN 1668 challenge and normalized to the expression of HPRT. See results in FIG. 8A, FIG. 8B, and FIG. 8C. […] The statistical significance of changes was determined by a one-way ANOVA test; *p<0.01.

TLR1/2 signaling = assay: TNFα mRNA in BMDM stimulated with Pam3C; assay type: cell-based, mouse; conditions: peptide 40 μM; P3C 0.33 μM; 1 h
Procedure: as §2, §3

[4] = higher ODN1668 dose 50 μg/mouse, peptide 200 nmol/mouse i.p.

ALRLCLEERD [Peptide 9R34-ΔN]
decrease of plasma IL-12-p40 peak (TLR9 signaling [1]; 3-hour samples, peptide 200 nmol/mouse i.p., ODN 1668 7.86 nmol/mouse): approximately 25 fold | 1-hour plasma TNFα peak (TLR9 signaling [1]; peptide 200 nmol/mouse i.p. 1 hour before ODN 1668 7.86 nmol/mouse): eliminated | ODN 1668-induced plasma cytokine levels (TNFα, IL-12-p40) (TLR9 signaling [1]; peptide 200 nmol/mouse i.p., ODN 1668 7.86 nmol/mouse): selectively inhibited only the ODN 1668-induced cytokines | protection against ODN-induced lethality (overall) (TLR9-induced lethality; D-Gal pretreated mice): protects mice from TLR9-induced lethality | protection of D-Gal pretreated mice (survival) (TLR9-induced lethality; ODN 1668 lower dose 3.93 nmol/mouse, peptide 200 nmol/mouse i.p.): full protection | mice rescued (TLR9-induced lethality; [4]): more than 50% | protection of D-Gal pretreated mice (survival) (TLR9-induced lethality; [4]): less protective | concentration up to which stock solutions were stable [2]: up to 10 mM | Pam3C-induced plasma cytokine levels (TNFα, IL-12-p40) (TLR2/1 signaling): did not affect cytokine levels

RSFWAQLGMALTRD (Synthetic peptide 9R11)
secretion of IL-12-p40 (TLR9 signaling [3]; peptide 20 μM): also effective | production/secretion of TNFα (TLR9 signaling [3]; peptide 40 μM): decreased the production of TNFα | secretion of IL-12-p40 (TLR9 signaling [3]; peptide 40 μM): reduced secretion | signaling induced by TLR7 agonist (TNFα mRNA) (TLR7 signaling): did not inhibit | signaling induced by TLR1/2 agonist (TNFα mRNA) (TLR1/2 signaling): did not inhibit
